Test results as given in the NIST ThermoML archive (doi:10.1021/acs.jced.8b00509).

Experiment: mn = molality of the nth substance listed, in mol/kg
Details: 100 kPa, Liquid; for viscosity: Capillary tube (Ostwald / Ubbelohde) method; for speed of sound: Frequency=3 MHz, Single path-length method; for mass density: Vibrating tube method

C[C@H](CCC(=O)[O-])[C@H]1CC[C@H]2[C@@H]3CC[C@@H]4C[C@H](O)CC[C@]4(C)[C@H]3C[C@H](O)[C@]12C.[Na+] [sodium deoxycholate] + O
Details | mass density [kg/m3] | speed of sound [m/s] | viscosity [mPa·s]
293.15 K, m1 = 0.001 | 998.38 | 1483.7 | 1.003
293.15 K, m1 = 0.002 | 998.49 | 1484.1 | 1.004
293.15 K, m1 = 0.003 | 998.58 | 1484.5 | 1.006
293.15 K, m1 = 0.004 | 998.67 | 1484.7 | 1.009
293.15 K, m1 = 0.005 | 998.75 | 1484.9 | 1.014
293.15 K, m1 = 0.006 | 998.83 | 1485.2 | 1.027
293.15 K, m1 = 0.007 | 998.92 | 1485.4 | 1.036
293.15 K, m1 = 0.008 | 999.01 | 1485.6 | 1.04
293.15 K, m1 = 0.009 | 999.11 | 1485.8 | 1.045
293.15 K, m1 = 0.01 | 999.21 | 1486 | 1.047
293.15 K, m1 = 0.011 | 999.32 | 1486.2 | 1.05
293.15 K, m1 = 0.012 | 999.4 | 1486.4 | 1.051
298.15 K, m1 = 0.001 | 997.22 | 1497.4 | 0.892
298.15 K, m1 = 0.002 | 997.31 | 1497.6 | 0.893
298.15 K, m1 = 0.003 | 997.39 | 1497.9 | 0.894
298.15 K, m1 = 0.004 | 997.48 | 1498.1 | 0.897
298.15 K, m1 = 0.005 | 997.56 | 1498.3 | 0.902
298.15 K, m1 = 0.006 | 997.65 | 1498.6 | 0.915
298.15 K, m1 = 0.007 | 997.73 | 1498.8 | 0.924
298.15 K, m1 = 0.008 | 997.83 | 1499 | 0.928
298.15 K, m1 = 0.009 | 998.01 | 1499.3 | 0.932
298.15 K, m1 = 0.01 | 998.11 | 1499.5 | 0.934
298.15 K, m1 = 0.011 | 998.2 | 1499.7 | 0.937
298.15 K, m1 = 0.012 | 998.2 | 1499.9 | 0.938
303.15 K, m1 = 0.001 | 995.81 | 1509.6 | 0.799
303.15 K, m1 = 0.002 | 995.91 | 1509.8 | 0.8
303.15 K, m1 = 0.003 | 995.98 | 1510 | 0.801
303.15 K, m1 = 0.004 | 996.07 | 1510.2 | 0.804
303.15 K, m1 = 0.005 | 996.14 | 1510.4 | 0.809
303.15 K, m1 = 0.006 | 996.22 | 1510.7 | 0.822
303.15 K, m1 = 0.007 | 996.3 | 1510.9 | 0.83
303.15 K, m1 = 0.008 | 996.39 | 1511.2 | 0.834
303.15 K, m1 = 0.009 | 996.48 | 1511.4 | 0.839
303.15 K, m1 = 0.01 | 996.58 | 1511.6 | 0.841
303.15 K, m1 = 0.011 | 996.66 | 1511.9 | 0.843
303.15 K, m1 = 0.012 | 996.75 | 1512 | 0.846
308.15 K, m1 = 0.001 | 994.18 | 1520.1 | 0.72
308.15 K, m1 = 0.002 | 994.27 | 1520.4 | 0.721
308.15 K, m1 = 0.003 | 994.35 | 1520.6 | 0.722
308.15 K, m1 = 0.004 | 994.44 | 1520.8 | 0.726
308.15 K, m1 = 0.005 | 994.52 | 1521.2 | 0.73
308.15 K, m1 = 0.006 | 994.59 | 1521.5 | 0.743
308.15 K, m1 = 0.007 | 994.68 | 1521.7 | 0.752
308.15 K, m1 = 0.008 | 994.77 | 1522 | 0.756
308.15 K, m1 = 0.009 | 994.84 | 1522.2 | 0.76
308.15 K, m1 = 0.01 | 994.93 | 1522.4 | 0.763
308.15 K, m1 = 0.011 | 995.02 | 1522.2 | 0.764
308.15 K, m1 = 0.012 | 995.1 | 1522.4 | 0.766
313.15 K, m1 = 0.001 | 992.3 | 1529.2 | 0.654
313.15 K, m1 = 0.002 | 992.45 | 1529.4 | 0.655
313.15 K, m1 = 0.003 | 992.53 | 1529.6 | 0.657
313.15 K, m1 = 0.004 | 992.61 | 1529.8 | 0.659
313.15 K, m1 = 0.005 | 992.69 | 1529.9 | 0.664
313.15 K, m1 = 0.006 | 992.76 | 1530.1 | 0.678
313.15 K, m1 = 0.007 | 992.84 | 1530.3 | 0.686
313.15 K, m1 = 0.008 | 992.93 | 1530.5 | 0.69
313.15 K, m1 = 0.009 | 993.01 | 1530.7 | 0.694
313.15 K, m1 = 0.01 | 993.1 | 1530.9 | 0.695
313.15 K, m1 = 0.011 | 993.2 | 1531 | 0.699
313.15 K, m1 = 0.012 | 993.28 | 1531.2 | 0.699
